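Step 1: Grow cells in 96-well plates. Step 2: Expose to compound for 48 hours at 5 concentrations. Step 3: Interpolate endpoints linearly; if unreached, use highest concentration. The concentration for 50% growth inhibition is given as GI50. At the TGI there is no net growth.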
Key:
Assay in all cases: NCI-60 cell line screen, 48 h
SN12C renal = system: SN12C renal
CCRF-CEM leukemia = system: CCRF-CEM leukemia
NCI-H522 lung = system: NCI-H522 lung
K-562 leukemia = system: K-562 leukemia
SNB-19 CNS = system: SNB-19 CNS
SK-MEL-28 melanoma = system: SK-MEL-28 melanoma
DU-145 prostate = system: DU-145 prostate
HS 578T breast = system: HS 578T breast
ACHN renal = system: ACHN renal
SNB-75 CNS = system: SNB-75 CNS

SMILES | GI50 (SN12C renal) [µM] | TGI (SN12C renal) [µM] | GI50 (CCRF-CEM leukemia) [µM] | TGI (CCRF-CEM leukemia) [µM] | GI50 (NCI-H522 lung) [µM] | TGI (NCI-H522 lung) [µM] | GI50 (K-562 leukemia) [µM] | TGI (K-562 leukemia) [µM] | GI50 (SNB-19 CNS) [µM] | TGI (SNB-19 CNS) [µM] | GI50 (SK-MEL-28 melanoma) [µM] | TGI (SK-MEL-28 melanoma) [µM] | GI50 (DU-145 prostate) [µM] | TGI (DU-145 prostate) [µM] | GI50 (HS 578T breast) [µM] | TGI (HS 578T breast) [µM] | GI50 (ACHN renal) [µM] | TGI (ACHN renal) [µM] | GI50 (SNB-75 CNS) [µM] | TGI (SNB-75 CNS) [µM]
O=C(NCCc1ccccc1)C(c1ccccc1)(c1ccccc1)c1ccccc1 | 1.8 | 5.96 | 40 | > 100 | 13.1 | 38.1 | 44.9 | > 100 | 7.27 | > 100 | 20.1 | > 100 | 3.38 | 44.2 | 3.88 | 23.7 | 3.13 | 9.35 | > 100 | > 100
COc1cc2c3c(c4ccc(OC)c(OC)c4c2cc1OC)CN1CCC[C@@H]1C3 | – | 18 | – | 0.651 | – | 0.792 | – | > 100 | – | 0.0826 | – | 7.43 | – | 2.9 | – | 0.593 | – | 3.55 | – | 0.0947
Nc1ccccc1SC(CC(=O)c1ccccc1)c1ccc([N+](=O)[O-])cc1 (stereo not given) | 11.6 | 23.8 | 13.7 | 46.7 | 12.9 | 27 | 3.91 | 14.8 | 12.2 | 24.6 | 14.4 | 27.6 | 13.9 | 27.2 | 18.1 | 47.6 | 11.8 | 24.2 | 11.2 | 23.3
Cc1nc2ccccn2c1NC(=O)NNC(=S)Nc1ccc(Br)cc1 | 35.9 | > 100 | 40.1 | > 100 | 30.1 | 79.1 | 21.8 | 54.6 | 39.1 | > 100 | 33 | 94 | 45.9 | > 100 | 54.8 | > 100 | 37.9 | > 100 | 26.1 | 67.5
COC(=O)[C@@]1(Cc2ccccc2)[C@H]2c3cc(C(=O)N4CCCC4)n(Cc4ccc(OC)c(OC)c4)c3C[C@H]2CN1C(=O)c1ccccc1 | 9.96 | 24.8 | 16.4 | > 50 | 8.73 | 19.6 | 9.27 | 37.3 | 17.4 | > 50 | 10.1 | 21.7 | 15 | > 50 | 6.56 | 19.4 | 17.8 | > 50 | 17.4 | > 50
CCN(CC)CC.CCOc1ccc(NC(=O)N=C=[N-])cc1.[CH-]1CCCCC1.[CH-]1CCCCC1.[CH-]1CCCCC1.[Cl-].[Sn+4] | 0.0233 | 0.0634 | < 0.0162 | 0.515 | 0.0205 | 0.0549 | 0.0171 | 0.463 | 0.0586 | 0.122 | 0.0349 | 0.088 | 0.0617 | 0.19 | 0.0565 | 0.47 | 0.0493 | 0.116 | 0.0244 | 0.108
CC1=CC(=O)CC(C)(C)C1(O)/C=C/C(C)=C/C(=O)O (stereo not given) | – | > 100 | – | > 100 | – | > 100 | – | > 100 | – | > 100 | – | > 100 | – | > 100 | – | > 100 | – | > 100 | – | > 100
